According to patent publication US10723741B1, “DNA polymerase IIIC inhibitors and use thereof” (Acurx Pharmaceuticals, LLC, priority 2018, dated 2020):
Values after ≈ are worked out from the molar mass of the structure shown. Where two headings read alike, the source gives them in different places.

Key:
Assay type in all cases: cell-based
[1] = system: Enterococcus faecalis ATCC 29212; test: Broth microdilution MIC, E. faecalis ATCC 29212; conditions: ATCC29212, broth microdilution, 37° C., 20 hours, read-out: MIC E. faecalis ATCC 29212
Outline: (§1)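 Broth microdilution in strain-specific test medium with ~5.0×10^5 cfu/ml inoculum, 1% DMSO and two-fold compound dilutions from 64 to 0.0625 μg/ml. Plates were held 20 hours at 37° C in ambient air. S. pneumoniae colonies were grown beforehand on blood agar in 5% CO2.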

[2] = system: Staphylococcus aureus ATCC 29213 (MSSA); test: Broth microdilution MIC, S. aureus ATCC 29213 (MSSA); conditions: broth microdilution, 37° C., 20 hours, read-out: MIC S. aureus ATCC 29213 (MSSA)
Outline: as §1

[3] = system: Staphylococcus aureus NRS384 (MRSA); test: Broth microdilution MIC, S. aureus NRS384 (MRSA); conditions: Staphylococcus aureus, broth microdilution, 37° C., 20 hours
Outline: as §1

[4] = system: Escherichia coli ATCC 25922; test: Broth microdilution MIC, E. coli ATCC 25922 (MHIIB w & w/o 4 mM EDTA); conditions: broth microdilution, 37° C., 20 hours; for MIC: Escherichia coli, ATCC25922, without EDTA, read-out: MIC E. coli ATCC 25922; for MIC E. coli ATCC 25922 + 4 mM EDTA: with 4 mM EDTA
Outline: as §1

[5] = MHIIB, read-out: MIC against S. aureus NRS 384 (MRSA)

SMILES | MIC [1] | MIC [2] | MIC ([3]; read-out: MIC NRS 384 (MRSA)) | MIC [3, 5] | MIC [4] | MIC E. coli ATCC 25922 + 4 mM EDTA [4]
Cn1ncc2nc(NCc3ccc(Cl)c(Cl)c3)[nH]c(=O)c21 [Compound 2, 5-((3,4-Dichlorobenzyl)amino)-1-methyl-1H-pyrazolo[4,3-d]pyrimidin-7(6H)-one] | 2 mg/L (≈ 6.17 µM) | 2 mg/L (≈ 6.17 µM) | 1 mg/L (≈ 3.08 µM) | ≤ 1 mg/L | > 64 mg/L | >64 mg/L
Cc1nn(C)c2c(=O)[nH]c(NCc3ccc(Cl)c(Cl)c3)nc12 [Compound 44, 5-((3,4-dichlorobenzyl)amino)-1,3-dimethyl-1H-pyrazolo[4,3-d]pyrimidin-7(6H)-one] | 4 mg/L (≈ 11.8 µM) | 2 mg/L (≈ 5.91 µM) | 2 mg/L (≈ 5.91 µM) | ≤ 1 mg/L | > 64 mg/L | >64 mg/L
C=CCn1ncc2nc(NCc3ccc(Cl)c(Cl)c3)[nH]c(=O)c21 [Compound 56, 1-allyl-5-((3,4-dichlorobenzyl)amino)-1H-pyrazolo[4,3-d]pyrimidin-7(6H)-one] | 2 mg/L (≈ 5.71 µM) | 1 mg/L (≈ 2.86 µM) | 0.5 mg/L (≈ 1.43 µM) | ≤ 1 mg/L | > 64 mg/L | >64 mg/L
O=c1[nH]c(NCc2ccc(Cl)c(Cl)c2)nc2cn[nH]c12 [Compound 77, 5-((3,4-dichlorobenzyl)amino)-1H-pyrazolo[4,3-d]pyrimidin-7(6H)-one] | 8 mg/L (≈ 25.8 µM) | 8 mg/L (≈ 25.8 µM) | 8 mg/L (≈ 25.8 µM) | – | > 64 mg/L | >64 mg/L
COCCn1ncc2nc(NCc3ccc(Cl)c(Cl)c3)[nH]c(=O)c21 [Compound 126, 5-((3,4-dichlorobenzyl)amino)-1-(2-methoxyethyl)-1H-pyrazolo[4,3-d]pyrimidin-7(6H)-one] | 4 mg/L (≈ 10.9 µM) | 2 mg/L (≈ 5.43 µM) | 2 mg/L (≈ 5.43 µM) | – | > 64 mg/L | >64 mg/L
Cl.O=c1[nH]c(NCc2ccc(Cl)c(Cl)c2)nc2cnn(CC3CNCCO3)c12 (stereo not drawn) [Compound 149, 5-((3,4-dichlorobenzyl)amino)-1-(morpholin-2-ylmethyl)-1H-pyrazolo[4,3-d]pyrimidin-7(6H)-one hydrochloride] | 16 mg/L | 16 mg/L | 32 mg/L | – | > 64 mg/L | 64 mg/L
Cl.Cl.O=c1[nH]c(NCc2ccc(Cl)c(Cl)c2)nc2cnn(CCOCCN3CCNCC3)c12 [Compound 167, 5-[(3,4-dichlorophenyl)methylamino]-1-[2-(2-piperazin-1-ylethoxy)ethyl]-6H-pyrazolo[4,3-d]pyrimidin-7-one] | 64 mg/L | – | > 64 mg/L | – | > 64 mg/L | >64 mg/L
CN(C)CCOCCn1ncc2nc(NCc3ccc(Cl)c(Cl)c3)[nH]c(=O)c21.Cl [Compound 211, 5-((3,4-dichlorobenzyl)amino)-1-(2-(2-(dimethylamino)ethoxy)ethyl)-1H-pyrazolo[4,3-d]pyrimidin-7(6H)-one hydrochloride] | 16 mg/L | 32 mg/L | 32 mg/L | – | > 64 mg/L | >64 mg/L
O=c1[nH]c(NCc2ccc(Cl)c(Cl)c2)nc2cnn(-c3ccccc3)c12 [Compound 212, 5-[(3,4-dichlorophenyl)methylamino]-1-phenyl-6H-pyrazolo[4,3-d]pyrimidin-7-one] | > 64 mg/L | 1 mg/L (≈ 2.59 µM) | 1 mg/L (≈ 2.59 µM) | ≤ 1 mg/L | > 64 mg/L | >64 mg/L
O=c1[nH]c(NCc2ccc(Cl)c(Cl)c2)nc2cnn(C3CC3)c12 [Compound 213, 1-Cyclopropyl-5-((3,4-dichlorobenzyl)amino)-1H-pyrazolo[4,3-d]pyrimidin-7(6H)-one] | 2 mg/L (≈ 5.71 µM) | 1 mg/L (≈ 2.86 µM) | 1 mg/L (≈ 2.86 µM) | ≤ 1 mg/L | > 64 mg/L | >64 mg/L
O=c1[nH]c(NCc2ccc(Cl)c(Cl)c2)nc2cnn(C3CCCC3)c12 [Compound 214, 1-cyclopentyl-5-((3,4-dichlorobenzyl)amino)-1H-pyrazolo[4,3-d]pyrimidin-7(6H)-one] | 2 mg/L (≈ 5.29 µM) | 2 mg/L (≈ 5.29 µM) | 1 mg/L (≈ 2.64 µM) | ≤ 1 mg/L | > 64 mg/L | >64 mg/L
COC(=O)CCCCn1ncc2nc(NCc3ccc(Cl)c(Cl)c3)[nH]c(=O)c21 [Compound 218, methyl 5-[5-[(3,4-dichlorophenyl)methylamino]-7-oxo-6H-pyrazolo[4,3-d]pyrimidin-1-yl]pentanoate] | 2 mg/L (≈ 4.71 µM) | 1 mg/L (≈ 2.36 µM) | 1 mg/L (≈ 2.36 µM) | ≤ 1 mg/L | > 64 mg/L | >64 mg/L
Cl.O=c1[nH]c(NCc2ccc(Cl)c(Cl)c2)nc2cnn(C3CCN(C4CCOCC4)CC3)c12 [Compound 242, 5-((3,4-dichlorobenzyl)amino)-1-(1-(tetrahydro-2H-pyran-4-yl)piperidin-4-yl)-1H-pyrazolo[4,3-d]pyrimidin-7(6H)-one hydrochloride] | 4 mg/L | 8 mg/L | 4 mg/L | – | > 64 mg/L | 32 mg/L
O=C(O)CCC(=O)N1CCC(n2ncc3nc(NCc4ccc(Cl)c(Cl)c4)[nH]c(=O)c32)CC1 [Compound 273, 4-(4-(5-((3,4-dichlorobenzyl)amino)-7-oxo-6,7-dihydro-1H-pyrazolo[4,3-d]pyrimidin-1-yl)piperidin-1-yl)-4-oxobutanoic Acid] | 64 mg/L (≈ 130 µM) | > 64 mg/L | > 64 mg/L | – | > 64 mg/L | >64 mg/L
O=C([C@@H](O)[C@H](O)CO)N1CCC(n2ncc3nc(NCc4ccc(Cl)c(Cl)c4)[nH]c(=O)c32)CC1 [Compound 276, 5-((3,4-dichlorobenzyl)amino)-1-(1-((2S,3R)-2,3,4-trihydroxybutanoyl)piperidin-4-yl)-1H-pyrazolo[4,3-d]pyrimidin-7(6H)-one] | 64 mg/L (≈ 125 µM) | > 64 mg/L | 64 mg/L (≈ 125 µM) | – | > 64 mg/L | >64 mg/L
